Measurements as given in PubChem BioAssay AID248 (DTP/NCI, 2004).
Several values for one entry are separate records, joined by “and”; a condition that tells them apart may be missing. Equal values may be shown once. Toxic doses and inconclusive results are not listed. Rule as the data show it: active = T/C of 150% or more; inactive = T/C below 125%.

System: L1210 leukemia ip in BDF1 mice, survival T/C
Experiment: NCI In Vivo Anticancer Drug Screen. Data for tumor model L1210 Leukemia (intraperitoneal) in B6D2F1 (BDF1) mice
Conditions: endpoint: mean survival time, higher = longer survival
Method in brief: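 Antitumor effect is assessed in tumor-bearing animals. Survival in the compound arm is compared with a vehicle-dosed control arm and expressed as their quotient.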

[1] = dose: 100.0 mg/kg/injection, schedule: Q01DX001 (ip), vehicle: saline
[2] = dose: 200.0 mg/kg/injection, schedule: Q01DX001 (ip), vehicle: saline
[3] = dose: 400.0 mg/kg/injection, schedule: Q01DX001 (ip), vehicle: saline
[4] = dose: 100.0 mg/kg/injection, schedule: Q01DX009 (ip), vehicle: Klucel (hydroxypropylcellulose) (HPC)
[5] = dose: 100.0 mg/kg/injection, schedule: Q04DX002 (ip), vehicle: Klucel (hydroxypropylcellulose) (HPC)
[6] = dose: 200.0 mg/kg/injection, schedule: Q01DX009 (ip), vehicle: Klucel (hydroxypropylcellulose) (HPC)
[7] = dose: 200.0 mg/kg/injection, schedule: Q04DX002 (ip), vehicle: Klucel (hydroxypropylcellulose) (HPC)
[8] = dose: 400.0 mg/kg/injection, schedule: Q01DX009 (ip), vehicle: Klucel (hydroxypropylcellulose) (HPC)
[9] = dose: 400.0 mg/kg/injection, schedule: Q04DX002 (ip), vehicle: Klucel (hydroxypropylcellulose) (HPC)

Measured: T/C

CCC1(O)CC(OC2CC(N(C)C)C(OC3CC4OC5CC(=O)C(C)OC5OC4C(C)O3)C(C)O2)c2c(cc3c(c2O)C(=O)c2c(O)ccc(O)c2C3=O)C1C(=O)OC (centres undefined)
inactive: dose: 0.01 mg/kg/injection, schedule: Q01DX Z (ip), vehicle: saline 108 % of control and 88 % of control | dose: 0.16 mg/kg/injection, schedule: Q01DX Z (ip), vehicle: saline 98 % of control and 88 % of control | dose: 0.18 mg/kg/injection, schedule: Q03HX008 (ip), vehicle: saline with Tween-80 94 % of control and 90 % of control | dose: 0.18 mg/kg/injection, schedule: Q03HX024 (ip), vehicle: saline with Tween-80 93 % of control and 102 % of control | dose: 0.25 mg/kg/injection, schedule: Q01DX Z (ip), vehicle: other 103 % of control | dose: 0.25 mg/kg/injection, schedule: Q01DX Z (ip), vehicle: saline 94 % of control and 105 % of control | dose: 0.37 mg/kg/injection, schedule: Q03HX008 (ip), vehicle: saline with Tween-80 94 % of control and 100 % of control | dose: 0.37 mg/kg/injection, schedule: Q03HX024 (ip), vehicle: saline with Tween-80 99 % of control and 102 % of control | dose: 0.5 mg/kg/injection, schedule: Q01DX Z (ip), vehicle: other 112 % of control | dose: 0.5 mg/kg/injection, schedule: Q01DX Z (ip), vehicle: saline 113 % of control and 120 % of control | dose: 0.75 mg/kg/injection, schedule: Q01DX009 (ip), vehicle: saline with Tween-80 98 % of control | dose: 0.75 mg/kg/injection, schedule: Q03HX008 (ip), vehicle: saline with Tween-80 105 % of control and 109 % of control | dose: 0.75 mg/kg/injection, schedule: Q03HX024 (ip), vehicle: saline with Tween-80 105 % of control and 107 % of control | dose: 1.0 mg/kg/injection, schedule: Q01DX015 (ip), vehicle: saline 123 % of control | dose: 1.0 mg/kg/injection, schedule: Q01DX Z (ip), vehicle: other 123 % of control | dose: 1.1 mg/kg/injection, schedule: Q04DX003 (ip), vehicle: saline 107 % of control | dose: 1.25 mg/kg/injection, schedule: Q04DX003 (ip), vehicle: saline 106 % of control | dose: 1.5 mg/kg/injection, schedule: Q01DX001 (ip), vehicle: saline with Tween-80 93 % of control and 95 % of control | dose: 1.5 mg/kg/injection, schedule: Q01DX009 (ip), vehicle: saline with Tween-80 111 % of control | dose: 1.5 mg/kg/injection, schedule: Q01DX Z (ip), vehicle: other 120 % of control | dose: 1.5 mg/kg/injection, schedule: Q03HX008 (ip), vehicle: saline with Tween-80 114 % of control | dose: 1.5 mg/kg/injection, schedule: Q03HX024 (ip), vehicle: saline with Tween-80 98 % of control and 106 % of control | dose: 1.5 mg/kg/injection, schedule: Q04DX003 (ip), vehicle: saline with Tween-80 102 % of control and 105 % of control | dose: 1.7 mg/kg/injection, schedule: Q04DX003 (ip), vehicle: saline 110 % of control | dose: 1.8 mg/kg/injection, schedule: Q01DX015 (ip), vehicle: saline 91 % of control | dose: 2.0 mg/kg/injection, schedule: Q01DX Z (ip), vehicle: other 116 % of control | dose: 2.5 mg/kg/injection, schedule: Q04DX003 (ip), vehicle: saline 111 % of control | dose: 2.6 mg/kg/injection, schedule: Q04DX003 (ip), vehicle: saline 110 % of control | dose: 2.7 mg/kg/injection, schedule: Q01DX001 (ip), vehicle: saline 104 % of control and 120 % of control | dose: 3.0 mg/kg/injection, schedule: Q01DX001 (ip), vehicle: saline with Tween-80 93 % of control and 99 % of control | dose: 3.0 mg/kg/injection, schedule: Q01DX009 (ip), vehicle: saline with Tween-80 100 % of control | dose: 3.0 mg/kg/injection, schedule: Q04DX003 (ip), vehicle: saline with Tween-80 107 % of control and 108 % of control | dose: 4.0 mg/kg/injection, schedule: Q01DX001 (ip), vehicle: saline 114 % of control | dose: 4.0 mg/kg/injection, schedule: Q04DX003 (ip), vehicle: saline 124 % of control | dose: 6.0 mg/kg/injection, schedule: Q01DX001 (ip), vehicle: saline with Tween-80 99 % of control and 106 % of control | dose: 6.0 mg/kg/injection, schedule: Q01DX001 (ip), vehicle: saline 119 % of control | dose: 6.0 mg/kg/injection, schedule: Q04DX003 (ip), vehicle: saline with Tween-80 113 % of control and 115 % of control and 117 % of control | dose: 9.0 mg/kg/injection, schedule: Q01DX001 (ip), vehicle: saline 110 % of control | dose: 9.0 mg/kg/injection, schedule: Q04DX003 (ip), vehicle: saline with Tween-80 97 % of control | dose: 10.0 mg/kg/injection, schedule: Q04DX003 (ip), vehicle: saline 87 % of control | dose: 12.0 mg/kg/injection, schedule: Q01DX001 (ip), vehicle: saline with Tween-80 110 % of control and 122 % of control | dose: 12.0 mg/kg/injection, schedule: Q04DX003 (ip), vehicle: saline with Tween-80 105 % of control

CCOP(=O)(OCC)SC=C(Cl)Cl
inactive: dose: 25.0 mg/kg/injection, schedule: Q04DX002 (ip), vehicle: saline with Tween-80 94 % of control | dose: 50.0 mg/kg/injection, schedule: Q04DX002 (ip), vehicle: saline with Tween-80 91 % of control | dose: 100.0 mg/kg/injection, schedule: Q04DX002 (ip), vehicle: saline with Tween-80 94 % of control and 95 % of control

O=C(/C(=C\c1ccccc1)c1ccccc1)c1ccc(O)cc1
inactive: [1] 98 % of control | [2] 101 % of control | [3] 101 % of control

NC1(C(=O)O)CCCC2CCCCC21 (centres undefined)
inactive: [4] 100 % of control | [5] 93 % of control | [6] 96 % of control | [7] 93 % of control | [8] 91 % of control | [9] 96 % of control

NC1CCCC[N-]1.NC1CCCC[N-]1.NC1CCCC[N-]1.[Cl][Cr]([Cl])[Cl] (centres undefined)
inactive: dose: 18.75 mg/kg/injection, schedule: Q04DX003 (ip), vehicle: saline 94 % of control | dose: 37.5 mg/kg/injection, schedule: Q04DX003 (ip), vehicle: saline 92 % of control | dose: 75.0 mg/kg/injection, schedule: Q04DX003 (ip), vehicle: saline 89 % of control

Cc1cc(Cl)c(Cl)cc1NC(=O)c1ccc(Cl)cc1Cl
inactive: [5] 108 % of control | [7] 94 % of control | [9] 108 % of control

CNC(=O)Oc1cccc(N(C)C)c1
inactive: dose: 9.5 mg/kg/injection, schedule: Q01DX001 (ip), vehicle: other 100 % of control | dose: 19.0 mg/kg/injection, schedule: Q01DX001 (ip), vehicle: other 98 % of control

CC(=O)CC(C)=NCCN=C(C)CC(C)=O.[Cu]
inactive: dose: 6.0 mg/kg/injection, schedule: Q01DX009 (ip), vehicle: saline with Tween-80 97 % of control | dose: 12.0 mg/kg/injection, schedule: Q01DX009 (ip), vehicle: saline with Tween-80 98 % of control | dose: 12.5 mg/kg/injection, schedule: Q01DX001 (ip), vehicle: saline with Tween-80 94 % of control | dose: 12.5 mg/kg/injection, schedule: Q04DX003 (ip), vehicle: saline with Tween-80 93 % of control | dose: 25.0 mg/kg/injection, schedule: Q01DX001 (ip), vehicle: saline with Tween-80 91 % of control | dose: 25.0 mg/kg/injection, schedule: Q01DX009 (ip), vehicle: saline with Tween-80 101 % of control | dose: 25.0 mg/kg/injection, schedule: Q04DX003 (ip), vehicle: saline with Tween-80 100 % of control | dose: 50.0 mg/kg/injection, schedule: Q01DX001 (ip), vehicle: saline with Tween-80 91 % of control | dose: 50.0 mg/kg/injection, schedule: Q04DX003 (ip), vehicle: saline with Tween-80 88 % of control

O=C(Nc1ccc([N+](=O)[O-])cc1Br)c1ccc(C(=O)Nc2ccc([N+](=O)[O-])cc2Br)cc1
inactive: [1] 97 % of control | [2] 105 % of control | [3] 103 % of control

Nc1cccc2c1C(=O)c1cccc(NC(=O)c3ccccc3)c1C2=O
inactive: dose: 6.25 mg/kg/injection, schedule: Q01DX009 (ip), vehicle: Klucel (hydroxypropylcellulose) (HPC) 89 % of control | dose: 12.5 mg/kg/injection, schedule: Q01DX009 (ip), vehicle: Klucel (hydroxypropylcellulose) (HPC) 92 % of control | dose: 25.0 mg/kg/injection, schedule: Q01DX009 (ip), vehicle: Klucel (hydroxypropylcellulose) (HPC) 89 % of control | dose: 50.0 mg/kg/injection, schedule: Q01DX009 (ip), vehicle: Klucel (hydroxypropylcellulose) (HPC) 108 % of control | [4] 95 % of control | dose: 100.0 mg/kg/injection, schedule: Q04DX003 (ip), vehicle: Klucel (hydroxypropylcellulose) (HPC) 96 % of control | [6] 95 % of control | dose: 200.0 mg/kg/injection, schedule: Q04DX003 (ip), vehicle: Klucel (hydroxypropylcellulose) (HPC) 91 % of control | [8] 99 % of control | dose: 400.0 mg/kg/injection, schedule: Q04DX003 (ip), vehicle: Klucel (hydroxypropylcellulose) (HPC) 90 % of control
